{"source": "patent US11752152B1", "about": "“Pharmaceutical formulations of imatinib and uses thereof” (Exvastat Ltd, priority 2022, dated 2023)", "origin": "cited, not measured here", "system": "animal models of sepsis, acute lung injury and impaired microcirculatory perfusion", "conditions": "variety of animal models"}
{"smiles": "Cc1ccc(NC(=O)c2ccc(CN3CCN(C)CC3)cc2)cc1Nc1nccc(-c2cccnc2)n1", "note": "[Imatinib, 4-[(4-methylpiperazin-1-yl)methyl]-N-[4-methyl-3-[(4-pyridin-3-ylpyrimidin-2-yl)amino]phenyl]benzamide]", "values": [{"measurement": "effect on endothelial barrier, vascular leak and inflammation", "value": "protect the endothelial barrier, prevent vascular leak and reduce inflammation"}]}
